# According to article PMC6076261, “A new quinoline-based chemical probe inhibits the autophagy-related cysteine protease ATG4B” (Scientific Reports, 2018):
# Where two headings read alike, the source gives them in different places.
# Experiments:
# JIMT-1 cells = assay: LC3B-II versus pro-LC3B western blot in JIMT-1 cells; conditions: 75 µM; 24 h
# Experimental: To further confirm that the increase in LC3B-II represented a block in autophagy flux, the levels of endogenous LC3B-II were quantitated in the presence and absence of bafilomycin A1 (Baf A1).
# Membranes were blocked in 2% milk and incubated in primary antibodies overnight at 4 °C. Primary antibodies were diluted in 2% milk and included: p62 (1:1000; Sigma, ref: P0067), LC3B (1:1000; Abcam, ref: ab48394), GABARAP (1:1000; Abcam, ref: ab109364), beta-actin (1:10000; Abcam, ref: ab6276), and vinculin (1:1000; Abcam, ref: ab129002). Membranes were then washed with 1X PBS-T (0.1%), incubated in HRP-conjugated secondary antibodies and detected using Bio-Rad Clarity Western ECL substrate and the electronic Bio-Rad ChemiDoc MP System. Densitometry was performed using Image Lab software (Bio-Rad), and the relative levels of LC3B-II were determined by first normalizing to the actin loading controls then to the DMSO controls.
# [1] = Pharmacokinetic assay, oral dosing; assay type: in vivo, BL/6 mice
# Experimental: Blood samples (approximately 50 µL) were collected at predetermined intervals. Blood samples were placed into tubes containing sodium heparin and centrifuged at 10000 × g for 14 min to obtain the plasma samples.
# SKBR3 cells = assay: DQ-BSA assay for lysosomal activity; assay type: cell-based; conditions: CQ 20 µM; LV-320 75 and 100 µM
# Experimental: A DQ-BSA assay was used to determine lysosomal degradative activity as described. […] All samples contained equal concentration of DMSO (0.5%) in regular growth media (Gibco DMEM + 10% FBS + 20 mM HEPES + 1X NEAA). […] Data were analyzed using FlowJo software.
# Cathepsin B = target: T1, Cathepsin B (Homo sapiens, UniProt P07858); assay: Cathepsin B assay; assay type: biochemical; conditions: concentrations up to 60 µM
# T1 construct: Cathepsin B (human, recombinant, active - BioVision #7580-5); purchased BioVision #7580-5
# Experimental: The assay was performed essentially as described by Mendieta et al.[60] with Cathepsin B (human, recombinant, active - BioVision #7580-5), Substrate Z-Arg-Arg-AMC (Sigma C5429) and 1 µM Z-VAD-FMK (Adooq #A12373) as positive inhibition control.
# The assay was maintained at 37 °C and monitored every 2 min for 16 min at 348 nm/440 nm (excitation/emission).
# MDA-MB-231 cells [2] = assay: Autophagic flux and GABARAP western blot in MDA-MB-231 cells; assay type: cell-based
# Experimental: Corresponding mean LC3B-II/actin values were determined using densitometry analysis; error bars, SEM (n = 3). […] Autophagic flux assay using saturating (40 nM) concentrations of bafilomycin A1 (Baf A1) was applied for the assessment of LC3B-II accumulation. […] Corresponding mean LC3B-II/actin values were determined using densitometry analysis; n = 3; error bars, SEM; *p < 0.05. […] The control ATG4B-KO JIMT-1 cells showing the location of pro-LC3B are in lane 3. Samples were run on a 4–12% Bis-tris gradient gel. The banding pattern shown is representative of 3 independent experiments. […] Addition of bafilomycin A1 (Baf A1; 40 nM) or Wortmannin (1 µM) during the final 4 h of treatment had no effect. The GABARAP-II/actin values were determined using densitometry analysis; n = 3; error bars, SEM; *p < 0.05, Student’s t-test.
# [3] = In vivo autophagy assay in GFP-LC3 mice; conditions: female, GFP-LC3, mouse, 4 h after last dose, 100 or 200 mg/kg oral, 3 doses over two days
# Experimental: (§1) GFP–LC3 mice were kindly provided by Dr. Mizushima (Tokyo Medical and Dental University, Japan)[67]. […]. The treatment was given by oral gavage. Four hours after the last dose the mice were terminated, blood samples were collected and the livers were harvested for the analysis.
# (§2) After treatment, mouse liver tissues were collected and fixed with 4% paraformaldehyde dissolved in 0.1 M Na-phosphate buffer (pH 7.4) for 4 h, incubated overnight with 15% sucrose/PBS, and 30% sucrose/PBS for 4 h. Tissues were then embedded in OCT compound (Tissue-Tek) and stored at −80 °C. Liver OCT blocks were sectioned into 6 μm slides and countered stained with DAPI-containing mounting medium. Five randomly selected fields from each sample were examined (scorer was blinded) under 40x oil lens of the confocal microscope. Z-stack images were taken from each field with fixed settings at the laser power and exposure time for all samples. Green for GFP-LC3 and blue for nucleus (DAPI). The percentage of GFP-LC3 puncta positive cells from 5 fields were calculated for each sample; and 6 samples from each treatment condition were grouped for statistical analysis. Six animals per treatment group were used based on results in previous studies validating this method as a way to quantify GFP-LC3 puncta.
# GFP-LC3 mice = assay: In vivo autophagy assay in GFP-LC3 mice; conditions: 3 doses
# Experimental: as §1, §2
# [4] = test system: SKBR3, MCF7, JIMT1 and MDA-MB-231 cells; assay: Endogenous LC3B-II and p62 western blot in breast cancer cell lines; assay type: cell-based
# [5] = test system: MDA-MB-231 cells stably expressing mRFP-EGFP-LC3B; assay: mRFP-EGFP-LC3B puncta assay of starvation-induced autophagic flux; assay type: cell-based; conditions: 120 µM for 48 hours; starved conditions
# Description: Since GFP fluorescence is quenched in acid environments, but red fluorescence is preferentially retained, autolysosomes are indicated by red puncta whereas autophagosomes are indicated by yellow puncta, or the overlap of both red and green fluorescence. In starved control scramble-siRNA treated cells, abundant red puncta were detected as expected, indicating high levels of autophagic flux (Fig. 6a). […] To determine if LV-320 affects lysosomal degradation, we performed a DQ-BSA assay. DQ-Red BSA is a self-quenched fluorescent substrate that enters the cell through endocytosis and fluoresces upon lysosomal degradation.
# For each experiment, media was replenished every day after initial plating and before treatment. At the end of the experiment the cells were fixed in 4% PFA for 20 minutes and then rinsed with PBS. Cells were then mounted using SlowFade Gold Antifade with DAPI (Invitrogen). […] For each treatment, the number of green, red and yellow (i.e. red/green overlap where applicable) puncta per cell were determined for at least 100 cells. […] LTR fluorescent intensity was measured by the mean gray value from the unadjusted images taken with the same microscope settings of the LTR channel and subtracting the mean background using Image J 1.45 s (https://imagej.nih.gov/ij/) with cells counted by DRAQ5 positive nuclei.
# caspase-3 = target: T2, caspase-3 (Homo sapiens, UniProt P42574); assay: Caspase 3 assay (Abcam inhibitor kit); assay type: biochemical
# T2 construct: purchased Abcam ab102491
# T2 sequence (P42574 29-175 limits assumed): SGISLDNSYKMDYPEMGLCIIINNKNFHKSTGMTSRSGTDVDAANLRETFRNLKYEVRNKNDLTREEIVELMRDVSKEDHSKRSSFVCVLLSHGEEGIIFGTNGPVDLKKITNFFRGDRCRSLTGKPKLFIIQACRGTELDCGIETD
# T2 sequence (P42574 176-277 limits assumed): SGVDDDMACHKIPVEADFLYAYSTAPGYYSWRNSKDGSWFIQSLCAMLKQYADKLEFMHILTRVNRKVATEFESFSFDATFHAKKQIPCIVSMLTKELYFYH
# Experimental: Inhibition of caspase 3 was assayed using the Abcam Caspase 3 Inhibitor Drug Detection Kit (ab102491) according to the manufacturer’s protocol.
# osteosarcoma xenograft = test system: osteosarcoma xenograft; parameters: method as in PMID 25483883; conditions: dosed daily at 100 mg/kg; cited from earlier work
# LC3 = test system: LC3; parameters: method as in PMID 25483883; conditions: cited from earlier work
# ATG4B = target: T3, ATG4B (Homo sapiens, UniProt Q9Y4P1); assay: Fluorimetric ATG4B enzymatic assay with fluorescent peptide substrate pim-FG-PABA-AMC; assay type: biochemical; conditions: up to 175 µM
# T3 sequence (Q9Y4P1 1-393): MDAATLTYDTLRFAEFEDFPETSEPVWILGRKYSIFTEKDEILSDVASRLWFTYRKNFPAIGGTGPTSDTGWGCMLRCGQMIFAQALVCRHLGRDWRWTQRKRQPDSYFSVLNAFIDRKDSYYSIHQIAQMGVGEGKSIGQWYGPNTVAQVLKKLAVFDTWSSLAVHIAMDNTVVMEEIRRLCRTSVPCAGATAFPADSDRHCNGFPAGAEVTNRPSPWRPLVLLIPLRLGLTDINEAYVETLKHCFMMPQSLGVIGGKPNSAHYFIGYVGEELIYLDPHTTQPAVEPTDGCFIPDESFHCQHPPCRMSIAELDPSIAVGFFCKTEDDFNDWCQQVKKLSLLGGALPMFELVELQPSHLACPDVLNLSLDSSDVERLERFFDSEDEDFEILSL
# Experimental: 100 μL of immobilized TCEP in deionized water was diluted in 2.50 mL of buffer (50 mM Tris, 35 mM NaCl, pH = 8). The sample was centrifuged at 10,000 × g during 1 min. The supernatant was removed. This operation was done two more times. […] The solution was incubated on a carousel at 4 °C for 1 h. This solution was then diluted with 2.06 mL of buffer (50 mM Tris, 35 mM NaCl, 5 mM EDTA, pH 8), centrifuged at 10,000 × g during 1 min and the supernatant, containing the activated ATG4B (1 µM), was kept. A 96-well all-black plate was loaded where each well was charged with 55 µL of inhibitor at different concentrations (0 µM to 100 µM or 200 µM) in buffer/DMSO 41:3 (v/v) and 20 μL of enzyme or buffer were dispensed using a dispenser (Biotek). Plate was incubated for 30 min. A single read was done using excitation and emission wavelengths of 350/450 nm. 25 µL of peptide substrate (pim-FG-PABA-AMC)[52] (final assay concentration 100 µM) was dispensed using a dispenser (Biotek). Experiments were performed in triplicate except when it is mentioned. Fluorescent reads were performed using the Synergy 4 (Biotek) at 25 °C using excitation and emission wavelengths of 350/450 nm every 15 min for 2 h.
# MDA-MB-231 cells [6] = assay: Lysotracker Red fluorescence assay; assay type: cell-based; conditions: CQ 40 µM, LV-320 120 µM; 24 hours
# Experimental: For each experiment, media was replenished every day after initial plating and before treatment. At the end of the experiment the cells were fixed in 4% PFA for 20 minutes and then rinsed with PBS. Cells were then mounted using SlowFade Gold Antifade with DAPI (Invitrogen). For Lysotracker Red®(LTR) experiments, parental MDA-MB-231 cells were incubated with 50 µM of LTR for 5 min in the dark CO2 incubator, rinsed with PBS and fixed with 4% PFA for 20 min. Fixed cells were incubated in DRAQ5 (1:500) in PBS and 100 µg/mL RNaseA for 10 minutes at room temperature before being mounted with SlowFade Gold Antifade (Invitrogen). Leica TCS SP8 inverted confocal microscope with a Leica HC PL APO 63x/1.40 oil objective and LAS AF software (Leica) were used for imaging the cells. For each treatment, the number of green, red and yellow (i.e. red/green overlap where applicable) puncta per cell were determined for at least 100 cells. Puncta counting was performed using the OpenCV Python package; a contours discovery algorithm[66] was applied to images pre-processed by filtering colors and applying a Gaussian filter and adaptive threshold.
smiles,measurement,setting,value
O=C(O)CCSC(SCCc1ccccc1)c1ccc(/C=C/c2ccnc3cc(Cl)ccc23)cc1 (stereo not drawn) [LV-320],LC3B-II versus pro-LC3B accumulation,JIMT-1 cells,accumulation of LC3B-II but not pro-LC3B
same,maximum concentration in plasma,[1]; 100 mg/kg oral,210 ± 50 µM
same,maximum concentration in plasma,[1]; 200 mg/kg oral,280 ± 20 µM
same,Tmax,"[1]; female, BL/6, mouse, plasma, 100 and 200 mg/kg oral, read-out: time of maximum concentration",1 h
same,dose proportionality of blood levels,"[1]; oral 30, 100 and 200 mg/kg",dose proportional up to 100 mg/kg but somewhat less so at 200 mg/kg
same,DQ-Red BSA fluorescence (lysosomal degradation),SKBR3 cells,no significant effect
same,inhibition of cathepsin B,Cathepsin B,32%
same,GABARAP levels,MDA-MB-231 cells [2]; 120 µM for 24 h,significant decrease
same,autophagic flux (LC3B-II with and without Baf A1),"MDA-MB-231 cells [2]; 120 µM for 48 hours, Baf A1 40 nM",blocks autophagic flux
same,concentration at 4 h,"[3]; blood, read-out: terminal blood levels",169 ± 23 µM
same,concentration at 4 h,"[3]; liver, read-out: liver levels",104 ± 26 µM
same,toxicity of treatment regimens,GFP-LC3 mice; 100 and 200 mg/kg oral,did not cause significant toxicity
same,GFP-LC3 puncta in liver versus controls,GFP-LC3 mice; 100 or 200 mg/kg oral,significantly greater accumulation
same,LC3B-II protein in liver versus vehicle controls,GFP-LC3 mice; 100 or 200 mg/kg oral,increased
same,p62 level,[4],dose-dependent increase
same,concentration at which LC3B-II changes first detected,[4]; all four cell lines,50 to 75 µM
same,endogenous LC3B-II levels,[4]; all four cell lines,dose-dependent increase
same,formation of red puncta (autolysosomes),[5],significantly blocked
same,inhibition at 60 µM,caspase-3,6%
"S=C(Nc1ccccn1)c1ccccn1 [NSC 185058, N-pyridin-2-ylpyridine-2-carbothioamide]",tumor growth,osteosarcoma xenograft,ability to inhibit tumor growth
same,activation and lipidation of LC3 in cells,LC3,inhibiting activation and lipidation of LC3 in cells
"CCN(CC)CCCC(C)Nc1ccnc2cc(Cl)ccc12 (stereo not drawn) [chloroquine, reference compound]",DQ-Red BSA fluorescence (lysosomal degradation),SKBR3 cells,significantly reduced
same,inhibition of activity of purified ATG4B,ATG4B,did not show significant inhibition
same,LTR fluorescence intensity relative to vehicle,MDA-MB-231 cells [6],statistically significant decrease
